Positions of bridges follow the written chain, without caps; N, C: chain ends. Non-standard residues stand in square brackets, D forms with d. Residues, ends and D or L forms follow the SMILES beside them. Trp(1-CH2COOH) = N[C@@H](Cc1cn(CC(=O)O)c2ccccc12)C(=O)O; Phe(4-F) = N[C@@H](Cc1ccc(F)cc1)C(=O)O; Phe(4-Me) = Cc1ccc(C[C@H](N)C(=O)O)cc1; Hyp = O=C(O)[C@@H]1C[C@@H](O)CN1; Aad = N[C@@H](CCCC(=O)O)C(=O)O; NMeNle = CCCC[C@H](NC)C(=O)O; dOrn = NCCC[C@@H](N)C(=O)O; Pip = O=C(O)[C@@H]1CCCCN1; Dab = NCC[C@H](N)C(=O)O; Dap = NC[C@H](N)C(=O)O; Ava = NCCCCC(=O)O
Molecular target: T1, PD-1-Ig binding to PD-L1-TVMV-His (PD-L1-His) (Homo sapiens, UniProt Q9NZQ7)
T1 construct: hPDL1(19-239)-TVMV-His; made in house; host or cells: HEK293T cells
T1 sequence (Q9NZQ7 with tags, fused parts or gaps): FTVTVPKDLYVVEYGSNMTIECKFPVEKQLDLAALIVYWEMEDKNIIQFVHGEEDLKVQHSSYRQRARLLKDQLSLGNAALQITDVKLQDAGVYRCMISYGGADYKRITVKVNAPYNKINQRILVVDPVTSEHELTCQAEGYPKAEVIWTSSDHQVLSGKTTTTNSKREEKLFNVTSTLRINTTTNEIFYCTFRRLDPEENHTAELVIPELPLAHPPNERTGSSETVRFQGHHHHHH
Assay: PD-1/PD-L1 Homogenous Time-Resolved Fluorescence (HTRF) binding assay
Details: PD-1-Ig (20 nM) / PD-L1-His (10 nM); numeric values
Summary of the method: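 In dPBS with 0.1% BSA and 0.05% Tween-20, inhibitors were preincubated 15 min with 10 nM PD-L1-His before 20 nM PD-1-Ig was added for another 15 min. Binding read by time-resolved FRET between Eu-cryptate anti-Ig (1 nM) and APC anti-His (20 nM).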

Row | Compound | IC50 [nM]
1 | CCCC[C@H]1C(=O)N(C)[C@@H](CCCC)C(=O)N[C@@H](C)C(=O)N[C@H](C(=O)NCC(N)=O)CCCNCC(=O)N[C@@H](Cc2ccc(O)cc2)C(=O)N(C)[C@@H](C)C(=O)N[C@@H](CC(=O)O)C(=O)N2CCC[C@H]2C(=O)N[C@@H](Cc2cnc[nH]2)C(=O)N[C@@H](CCC(N)=O)C(=O)N2C[C@H](O)C[C@H]2C(=O)N[C@@H](Cc2c[nH]c3ccccc23)C(=O)N[C@@H](CO)C(=O)N[C@@H](Cc2c[nH]c3ccccc23)C(=O)N1C [Example 10013] | 70
2 | CCCC[C@H]1C(=O)N(C)[C@@H](CCCC)C(=O)N[C@@H](CC(C)C)C(=O)N[C@H](C(N)=O)CNCC(=O)N[C@@H](Cc2ccc(F)cc2)C(=O)N2CCCC[C@H]2C(=O)N[C@@H](CC(N)=O)C(=O)N2CCC[C@H]2C(=O)N[C@@H](Cc2c[nH]cn2)C(=O)N[C@@H](CCC(=O)O)C(=O)N2C[C@H](O)C[C@H]2C(=O)N[C@@H](Cc2c[nH]c3ccccc23)C(=O)N[C@@H](C)C(=O)N[C@@H](Cc2cn(CC(=O)O)c3ccccc23)C(=O)N1C [Example 9052] | 10

Same assay, conditions: PD-1-Ig (20 nM) / PD-L1-His (10 nM); range classes

Row | Compound | IC50 [nM]
3 | CCCC[C@H]1C(=O)N(C)[C@@H](CCCC)C(=O)N[C@@H](CC(C)C)C(=O)NCCCCC(=O)N[C@@H](Cc2ccc(OC)cc2)C(=O)N2CCCC[C@H]2C(=O)N[C@@H](CC(N)=O)C(=O)N2CCC[C@H]2C(=O)N[C@@H](CN)C(=O)N[C@@H](CC(C)C)C(=O)N2C[C@H](O)C[C@H]2C(=O)N[C@@H](Cc2c[nH]c3ccccc23)C(=O)N[C@@H](CCN)C(=O)N[C@@H](Cc2cn(CC(=O)O)c3ccccc23)C(=O)N1C [Example 10535] (cyclo([Ava]Y(Me)[Pip]NP[Dap]L[Hyp]W[Dab][Trp(1-CH2COOH)][NMeNle][NMeNle]L)) | 1 to 9.9
4 | CCCC[C@H]1C(=O)N(C)[C@@H](CCCC)C(=O)N[C@@H](CC(C)C)C(=O)N[C@H](C(N)=O)CCCC(=O)N[C@@H](Cc2ccc(F)cc2)C(=O)N2CCCC[C@H]2C(=O)N[C@@H](CC(=O)O)C(=O)N2CCC[C@H]2C(=O)N[C@@H](CN)C(=O)N[C@@H](CC(C)C)C(=O)N2C[C@H](O)C[C@H]2C(=O)N[C@@H](Cc2c[nH]c3ccccc23)C(=O)N[C@@H](CCN)C(=O)N[C@@H](Cc2cn(CC(=O)O)c3ccccc23)C(=O)N1C [Example 10555] ([Phe(4-F)][Pip]DP[Dap]L[Hyp]W[Dab][Trp(1-CH2COOH)][NMeNle][NMeNle]L[Aad]-NH2; lactam N-14) | 10 to 99
5 | CCCC[C@H]1C(=O)N(C)[C@@H](CCCC)C(=O)N[C@@H](CC(C)C)C(=O)N[C@H](C(=O)NCC(N)=O)CCCNCC(=O)N[C@@H](Cc2ccc(O)cc2)C(=O)N(C)[C@@H](C)C(=O)N[C@@H](CC(N)=O)C(=O)N2CCC[C@H]2C(=O)N[C@@H](Cc2cnc[nH]2)C(=O)N[C@@H](CCC(N)=O)C(=O)N2C[C@H](O)C[C@H]2C(=O)N[C@@H](Cc2c[nH]c3ccccc23)C(=O)NCC(=O)N[C@@H](Cc2c[nH]c3ccccc23)C(=O)N1C [Example 10019] | 100 to 10000
6 | CCCC[C@H]1C(=O)N(C)[C@@H](CCCC)C(=O)N[C@@H](CC(C)C)C(=O)N[C@H](C(N)=O)CNCC(=O)N[C@@H](Cc2ccc(O)cc2)C(=O)N2CCCC[C@H]2C(=O)N[C@@H](CC(N)=O)C(=O)N2CCC[C@H]2C(=O)N[C@@H](CCC(N)=O)C(=O)N[C@@H](CCC(N)=O)C(=O)N2C[C@H](O)C[C@H]2C(=O)N[C@@H](Cc2c[nH]c3ccccc23)C(=O)N[C@@H](CC(N)=O)C(=O)N[C@@H](Cc2cn(CC(=O)O)c3ccccc23)C(=O)N1C [Example 9029] | 1 to 9.9
7 | CCCC[C@H]1C(=O)N(C)[C@@H](CCCC)C(=O)NC(CC(C)C)C(=O)N[C@H](C(N)=O)CNCC(=O)N[C@@H](Cc2ccc(O)cc2)C(=O)N(C)[C@@H](C)C(=O)N[C@@H](CC(N)=O)C(=O)N2CCC[C@H]2C(=O)N[C@@H](CN)C(=O)N[C@@H](CCC(=O)O)C(=O)N2C[C@H](O)C[C@H]2C(=O)N[C@@H](Cc2c[nH]c3ccccc23)C(=O)N[C@@H](CCN)C(=O)N[C@@H](Cc2cn(CC(=O)O)c3ccccc23)C(=O)N1C (some centres unmarked) [Example 1035] | 1 to 9.9
8 | CCCC[C@H]1C(=O)N(C)[C@@H](CCCC)C(=O)N[C@@H](CC(C)C)C(=O)NCCC[C@@H](N)C(=O)N[C@@H](Cc2ccc(OC)cc2)C(=O)N2CCCC[C@H]2C(=O)N[C@@H](CC(N)=O)C(=O)N2CCC[C@H]2C(=O)N[C@@H](CN)C(=O)N[C@@H](CCC(=O)O)C(=O)N2C[C@H](O)C[C@H]2C(=O)N[C@@H](Cc2c[nH]c3ccccc23)C(=O)N[C@@H](CCN)C(=O)N[C@@H](Cc2cn(CC(=O)O)c3ccccc23)C(=O)N1C [Example 10569] (H-[dOrn]Y(Me)[Pip]NP[Dap]E[Hyp]W[Dab][Trp(1-CH2COOH)][NMeNle][NMeNle]L; lactam 1-C) | 1 to 9.9
9 | CCCC[C@H]1C(=O)N(C)[C@@H](CCCC)C(=O)N[C@@H](CC(C)C)C(=O)NCCCCC(=O)N[C@@H](Cc2ccc(C)cc2)C(=O)N2CCCC[C@H]2C(=O)N[C@@H](CC(N)=O)C(=O)N2CCC[C@H]2C(=O)N[C@@H](CN)C(=O)N[C@@H](CC(C)C)C(=O)N2C[C@H](O)C[C@H]2C(=O)N[C@@H](Cc2c[nH]c3ccccc23)C(=O)N[C@@H](CCN)C(=O)N[C@@H](Cc2cn(CC(=O)O)c3ccccc23)C(=O)N1C [Example 10540] (cyclo([Ava][Phe(4-Me)][Pip]NP[Dap]L[Hyp]W[Dab][Trp(1-CH2COOH)][NMeNle][NMeNle]L)) | 1 to 9.9
10 | CCCC[C@H]1C(=O)N(C)[C@@H](CCCC)C(=O)N[C@@H](CCC(=O)O)C(=O)N[C@H](C(N)=O)CNCC(=O)N[C@@H](Cc2ccc(O)cc2)C(=O)N2CCCC[C@H]2C(=O)N[C@@H](CC(N)=O)C(=O)N2CCC[C@H]2C(=O)N[C@@H](CCC(N)=O)C(=O)N[C@@H](CCC(N)=O)C(=O)N2C[C@H](O)C[C@H]2C(=O)N[C@@H](Cc2c[nH]c3ccccc23)C(=O)N[C@@H](CC(N)=O)C(=O)N[C@@H](Cc2cn(CC(=O)O)c3ccccc23)C(=O)N1C [Example 9045] | 1 to 9.9
11 | CCCC[C@H]1C(=O)N(C)[C@@H](CCCC)C(=O)N[C@@H](CC(C)C)C(=O)NCCCCC(=O)N[C@@H](Cc2ccc(O)cc2)C(=O)N2CCCC[C@H]2C(=O)N[C@@H](CC(N)=O)C(=O)N2CCC[C@H]2C(=O)N[C@@H](CN)C(=O)N[C@@H](CC(C)C)C(=O)N2C[C@H](O)C[C@H]2C(=O)N[C@@H](Cc2c[nH]c3ccccc23)C(=O)N[C@@H](CCN)C(=O)N[C@@H](Cc2cn(CC(=O)O)c3ccccc23)C(=O)N1C [Example 10512] (cyclo([Ava]Y[Pip]NP[Dap]L[Hyp]W[Dab][Trp(1-CH2COOH)][NMeNle][NMeNle]L)) | 100 to 10000
12 | CCCC[C@H]1C(=O)N(C)[C@@H](CCCC)C(=O)N[C@@H](CCC(=O)O)C(=O)N[C@H](C(N)=O)CCCC(=O)N[C@@H](Cc2ccc(OC)cc2)C(=O)N2CCCC[C@H]2C(=O)N[C@@H](CC(N)=O)C(=O)N2CCC[C@H]2C(=O)N[C@@H](CN)C(=O)N[C@@H](CC(C)C)C(=O)N2C[C@H](O)C[C@H]2C(=O)N[C@@H](Cc2c[nH]c3ccccc23)C(=O)N[C@@H](CCN)C(=O)N[C@@H](Cc2cn(CC(=O)O)c3ccccc23)C(=O)N1C [Example 10563] (Y(Me)[Pip]NP[Dap]L[Hyp]W[Dab][Trp(1-CH2COOH)][NMeNle][NMeNle]E[Aad]-NH2; lactam N-14) | 1 to 9.9
13 | CCCC[C@H]1C(=O)N(C)[C@@H](CCCC)C(=O)N[C@@H](CC(C)C)C(=O)N[C@H](C(=O)NCC(N)=O)CNCC(=O)N[C@@H](Cc2ccc(F)cc2)C(=O)N(C)[C@@H](C)C(=O)N[C@@H](CC(=O)O)C(=O)N2CCC[C@H]2C(=O)N[C@@H](CCC(N)=O)C(=O)N[C@@H](CCC(N)=O)C(=O)N2C[C@H](O)C[C@H]2C(=O)N[C@@H](Cc2c[nH]c3ccccc23)C(=O)N[C@@H](CC(N)=O)C(=O)N[C@@H](Cc2cn(CC(=O)O)c3ccccc23)C(=O)N1C [Example 9017] | 10 to 99
14 | CCCC[C@H]1C(=O)N(C)[C@@H](CCCC)C(=O)N[C@@H](CC(C)C)C(=O)N[C@H](C(N)=O)CNCC(=O)N[C@@H](Cc2ccc(F)cc2)C(=O)N2CCCC[C@H]2C(=O)N[C@@H](CC(N)=O)C(=O)N2CCCC2C(=O)N[C@@H](Cc2c[nH]cn2)C(=O)N[C@@H](CCC(N)=O)C(=O)N2C[C@H](O)C[C@H]2C(=O)N[C@@H](Cc2c[nH]c3ccccc23)C(=O)N[C@@H](C)C(=O)N[C@@H](Cc2cn(CC(=O)O)c3ccccc23)C(=O)N1C (some centres unmarked) [Example 9053] | 1 to 9.9
15 | CCCC[C@H]1C(=O)N(C)[C@@H](CCCC)C(=O)N[C@@H](CC(C)C)C(=O)N[C@H](C(=O)NCC(N)=O)CNCC(=O)N[C@@H](Cc2ccc(O)cc2)C(=O)N(C)[C@@H](C)C(=O)N[C@@H](CC(N)=O)C(=O)N2CCC[C@H]2C(=O)N[C@@H](CCC(N)=O)C(=O)N[C@@H](CC(C)C)C(=O)N2C[C@H](O)C[C@H]2C(=O)N[C@@H](Cc2c[nH]c3ccccc23)C(=O)N[C@@H](CC(N)=O)C(=O)N[C@@H](Cc2cn(CC(=O)O)c3ccccc23)C(=O)N1C [Example 9005] | 1 to 9.9
16 | CCCC[C@H]1C(=O)N(C)[C@@H](CCCC)C(=O)N[C@@H](CC(C)C)C(=O)N[C@H](C(N)=O)CCCC(=O)N[C@@H](Cc2ccc(OC)cc2)C(=O)N2CCCC[C@H]2C(=O)N[C@@H](CC(=O)O)C(=O)N2CCC[C@H]2C(=O)N[C@@H](CN)C(=O)N[C@@H](CC(C)C)C(=O)N2C[C@H](O)C[C@H]2C(=O)N[C@@H](Cc2c[nH]c3ccccc23)C(=O)N[C@@H](CCN)C(=O)N[C@@H](Cc2cn(CC(=O)O)c3ccccc23)C(=O)N1C [Example 10554] (Y(Me)[Pip]DP[Dap]L[Hyp]W[Dab][Trp(1-CH2COOH)][NMeNle][NMeNle]L[Aad]-NH2; lactam N-14) | 1 to 9.9
17 | CCCC[C@H]1C(=O)N(C)[C@@H](CCCC)C(=O)N[C@@H](CC(C)C)C(=O)N[C@H](C(=O)NCC(N)=O)CNCC(=O)N[C@@H](Cc2ccc(F)cc2)C(=O)N(C)[C@@H](C)C(=O)N[C@@H](CC(N)=O)C(=O)N2CCC[C@H]2C(=O)N[C@@H](CCC(N)=O)C(=O)N[C@@H](CC(C)C)C(=O)N2C[C@H](O)C[C@H]2C(=O)N[C@@H](Cc2c[nH]c3ccccc23)C(=O)N[C@@H](CC(N)=O)C(=O)N[C@@H](Cc2cn(CC(=O)O)c3ccccc23)C(=O)N1C [Example 9009] | 1 to 9.9

Reference: patent US9732119B2, “Immunomodulators” (BRISTOL-MYERS SQUIBB COMPANY, priority 2014, dated 2017)
